Columns and labels:
[1] = biological target: T1, full-length hepatitis C viral protein NS3•4A (Hepatitis C virus genotype 1a, UniProt P27958); test: biochemical; set-up: species or system HCV sub-type strain 1a; settings: Enzyme Assay 2 (HCV NS3 Peptide Cleavage Assay) activity, apparent Ki class
T1 construct: hexa-histidine (N); made in house; host or cells: Sf9 insect cells (baculovirus, pVL1392)

HCV NS3 protease domain = biological target: T2, HCV NS3 protease domain (Hepatitis C virus genotype 1b, UniProt Q9WMX2); test: biochemical; settings: Enzyme Assay 1 (HCV NS3 Protease Domain Peptide Cleavage Assay) activity, apparent Ki class
T2 construct: The first 181 amino acids of NS3 (residues 1027-1207 of the viral polyprotein); hexa-histidine (C); made in house; host or cells: E. coli BL21/DE3 pLysS

SMILES | Ki [1] | Ki (HCV NS3 protease domain)
CCC[C@H](NC(=O)[C@@H]1C[C@]2(CC(c3cccc(Cl)c3)=NO2)CN1C(=O)C(NS(=O)(=O)c1ccc(F)cc1)C(C)C)C(=O)C(=O)NC1CC1 (stereo partly shown) [Compound 100] | > 500 nM | > 500 nM
CCC[C@H](NC(=O)[C@@H]1C[C@@]2(CC(c3cc(C)c(OC)c(Cl)c3)=NO2)CN1C(=O)[C@@H](NC(=O)CC1CCCCC1)C(C)(C)C)C(=O)C(=O)NC1CC1 [Compound 111] | 100 to 500 nM | 100 to 500 nM
CCC[C@H](NC(=O)[C@@H]1C[C@]2(CC(c3cccc(Cl)c3)=NO2)CN1C(=O)[C@H](NC(=O)CC1CCCCC1)C(C)(C)C)C(=O)C(=O)N(CC)CC [Compound 113] | > 500 nM | > 500 nM
C=C[C@@H]1C[C@]1(NC(=O)[C@@H]1C[C@]2(CC(c3cccc(Cl)c3)=NO2)CN1C(=O)[C@@H](NC(=O)CC1CCCCC1)C(C)(C)C)C(=O)NS(=O)(=O)NC1CC1 [Compound 115] | 100 to 500 nM | > 500 nM
CCC[C@H](NC(=O)[C@@H]1C[C@]2(CC(C(=O)c3ccccc3)=NO2)CN1C(=O)[C@@H](NC(=O)NC(C)(C)C)C(C)(C)C)C(=O)C(=O)NC1CC1 [Compound 119] | 100 to 500 nM | 100 to 500 nM
CCC[C@H](NC(=O)[C@@H]1C[C@]2(CC(c3cccc(Cl)c3)=NO2)CN1C(=O)[C@@H](NC(=O)CC1CCCCC1)C(C)(C)C)C(=O)C(=O)NC(c1ccccc1)c1ccccn1 (stereo partly shown) [Compound 120] | > 500 nM | > 500 nM
CCC[C@H](NC(=O)[C@@H]1C[C@]2(CC(c3cccc(Cl)c3)=NO2)CN1C(=O)[C@@H](NC(=O)CC1CCOC(C)(C)C1)C(C)(C)C)C(=O)C(=O)NC1CC1 (stereo partly shown) [Compound 121] | < 100 nM | 100 to 500 nM
CCC[C@H](NC(=O)[C@@H]1C[C@]2(CC(c3cccc(Cl)c3)=NO2)CN1C(=O)[C@@H](NC(=O)CC1CCCCC1)C(C)OC)C(=O)C(=O)NC1CC1 (stereo partly shown) [Compound 124] | 100 to 500 nM | > 500 nM
CCC[C@H](NC(=O)[C@@H]1C[C@]2(CC(c3cccc(Cl)c3)=NO2)CN1C(=O)[C@@H](NC(=O)CC1CCCCC1)[C@@H](C)c1ccccc1)C(=O)C(=O)NC1CC1 [Compound 125] | 100 to 500 nM | 100 to 500 nM
CCC[C@H](NC(=O)[C@@H]1C[C@]2(CC(c3cccc(Cl)c3)=NO2)CN1C(=O)[C@@H](NC(=O)CC1CCCCC1)C(C)(C)C)C(=O)C(=O)NCc1cc(OC)cc(OC)c1 [Compound 127] | 100 to 500 nM | 100 to 500 nM
C=CCOC(=O)N[C@H](C(=O)N1C[C@@]2(CC(c3cccc(Cl)c3)=NO2)C[C@H]1C(=O)N[C@]1(C(=O)NS(=O)(=O)C2CC2)C[C@H]1C=C)C(C)(C)C [Compound 130] | < 100 nM | 100 to 500 nM
CC(C)(C)[C@H](NC(=O)CC1CCCCC1)C(=O)N1C[C@@]2(CC(c3cncc(Cl)c3)=NO2)C[C@H]1C(=O)NC(CC1CCC1)C(=O)C(=O)NC1CC1 (stereo partly shown) [Compound 132] | 100 to 500 nM | 100 to 500 nM
CCC[C@H](NC(=O)[C@@H]1C[C@]2(CC(c3cccc(Cl)c3)=NO2)CN1C(=O)[C@@H](NC(=O)CC1CCCCC1)C(C)(C)C)C(=O)C(=O)N1CC(OCC)C1 [Compound 133] | 100 to 500 nM | 100 to 500 nM
CCC[C@H](NC(=O)[C@@H]1C[C@]2(CC(c3cc(Cl)cc4c3OCC4)=NO2)CN1C(=O)[C@@H](NC(=O)CC1CCCCC1)C(C)(C)C)C(=O)C(=O)NC1CC1 [Compound 134] | < 100 nM | 100 to 500 nM
CCC[C@H](NC(=O)[C@@H]1C[C@]2(CC(c3cc(F)c(OCC)c(Cl)c3)=NO2)CN1C(=O)[C@@H](NC(=O)CC1CCCCC1)C(C)(C)C)C(=O)C(=O)NC1CC1 [Compound 136] | 100 to 500 nM | 100 to 500 nM
CCC[C@H](NC(=O)[C@@H]1C[C@]2(CC(c3cccc(Cl)c3)=NO2)CN1C(=O)[C@@H](NC(=O)CC1CCCCC1)C(C)(C)C)C(=O)C(=O)NC(C)Cc1c[nH]c2ccc(C(C)=O)cc12 (stereo partly shown) [Compound 138] | > 500 nM | > 500 nM
CCC[C@H](NC(=O)[C@@H]1C[C@]2(CC(c3cccc(Cl)c3)=NO2)CN1C(=O)[C@@H](NC(=O)CC1CCCCC1)C(C)(C)C)C(=O)C(=O)NCC1COc2ccccc2O1 (stereo partly shown) [Compound 141] | 100 to 500 nM | > 500 nM
CCC[C@H](NC(=O)[C@@H]1C[C@]2(CC(c3cccc(Cl)c3)=NO2)CN1C(=O)[C@@H](NC(=O)CC1CCCCC1)C(C)(C)C)C(=O)C(=O)NCC(C)C [Compound 143] | 100 to 500 nM | 100 to 500 nM
CCC[C@H](NC(=O)[C@@H]1C[C@]2(CC(c3cccc(Cl)c3)=NO2)CN1C(=O)[C@@H](NC(=O)CC1CCCCC1)C(C)(C)C)C(=O)C(=O)Nc1cccc(NS(C)(=O)=O)c1 [Compound 148] | > 500 nM | > 500 nM
CCC[C@H](NC(=O)[C@@H]1C[C@]2(CC(c3cccc(Cl)c3)=NO2)CN1C(=O)C(NC(=O)CC1C[C@@H](C)O[C@H](C)C1)C(C)(C)C)C(=O)C(=O)NC1CC1 (stereo partly shown) [Compound 153] | 100 to 500 nM | 100 to 500 nM
CCC[C@H](NC(=O)[C@@H]1C[C@]2(CC(c3cc(Cl)ccc3OC)=NO2)CN1C(=O)[C@@H](NC(=O)CC1CCCCC1)C(C)(C)C)C(=O)C(=O)NC1CC1 [Compound 158] | < 100 nM | < 100 nM

SMILES | Ki [1] | Ki (HCV NS3 protease domain)
C=C[C@@H]1C[C@]1(NC(=O)[C@@H]1C[C@]2(CC(c3cccc(Cl)c3)=NO2)CN1C(=O)[C@@H](NC(=O)CC1CCCCC1)C(C)(C)C)C(=O)NS(=O)(=O)C1CC1 [Compound 162] | < 100 nM | 100 to 500 nM
CC(C)(C)OC(=O)N[C@H]1CCCCC/C=C\[C@@H]2C[C@@]2(C(=O)NS(=O)(=O)C2CC2)NC(=O)[C@@H]2C[C@]3(CC(C(=O)c4ccccc4)=NO3)CN2C1=O [Compound 163] | < 100 nM | < 100 nM
CCC[C@H](NC(=O)[C@@H]1C[C@]2(CC(c3cc(Cl)cnc3OC)=NO2)CN1C(=O)[C@@H](NC(=O)CC1CCCCC1)C(C)(C)C)C(=O)C(=O)NC1CC1 [Compound 165] | < 100 nM | 100 to 500 nM
CCC[C@H](NC(=O)[C@@H]1C[C@]2(CC(c3ccsc3)=NO2)CN1C(=O)[C@@H](NC(=O)CC1CCCCC1)C(C)(C)C)C(=O)C(=O)NC1CC1 [Compound 168] | 100 to 500 nM | 100 to 500 nM
CCC[C@H](NC(=O)[C@@H]1C[C@]2(CC(c3cccc(Cl)c3)=NO2)CN1C(=O)[C@@H](Nc1ccccc1)C(C)(C)C)C(=O)C(=O)NC1CC1 [Compound 172] | 100 to 500 nM | > 500 nM
CCC[C@H](NC(=O)[C@@H]1C[C@]2(CC(c3cccc(Cl)c3)=NO2)CN1C(=O)[C@@H](NC(=O)CC1CCCCC1)C(C)(C)C)C(=O)C(=O)NCc1csc(-c2ccccc2)n1 [Compound 176] | 100 to 500 nM | 100 to 500 nM
CCC[C@H](NC(=O)[C@@H]1C[C@]2(CC(c3ccc(C#N)cc3)=NO2)CN1C(=O)[C@@H](NC(=O)CC1CCOCC1)C(C)(C)C)C(=O)C(=O)NC1CC1 [Compound 177] | 100 to 500 nM | > 500 nM
CCC[C@H](NC(=O)[C@@H]1C[C@]2(CC(c3cccc(Cl)c3)=NO2)CN1C(=O)[C@@H](NC(=O)CC1CCCCC1)C(C)(C)C)C(=O)C(=O)Nc1ccc2c(C)cc(=O)[nH]c2c1 [Compound 181] | > 500 nM | > 500 nM
CCC[C@H](NC(=O)[C@@H]1C[C@]2(CC(c3cccc(Cl)c3)=NO2)CN1C(=O)[C@@H](NC(=O)CC1CCCCC1)C(C)(C)C)C(=O)C(=O)N(C)CC [Compound 182] | > 500 nM | > 500 nM
CCC[C@H](NC(=O)[C@@H]1C[C@]2(CC(c3cccc(Cl)c3)=NO2)CN1C(=O)[C@H](Cc1ccsc1)NC(=O)CC1CCCCC1)C(=O)C(=O)NC1CC1 [Compound 185] | 100 to 500 nM | > 500 nM
CCC[C@H](NC(=O)[C@@H]1C[C@]2(CC(c3cccc(Cl)c3)=NO2)CN1C(=O)[C@@H](NC(=O)CC1CCCCC1)C(C)(C)C)C(=O)C(=O)N1CC[C@@H](NC(C)=O)C1 [Compound 186] | > 500 nM | > 500 nM
CN(C)C(=O)C(=O)[C@@H](CC1CCC1)NC(=O)[C@@H]1C[C@]2(CC(c3cccc(Cl)c3)=NO2)CN1C(=O)[C@@H](NC(=O)CC1CCCCC1)C(C)(C)C [Compound 188] | > 500 nM | > 500 nM
C=C[C@@H]1C[C@]1(NC(=O)[C@@H]1C[C@]2(CC(c3cccc(Cl)c3)=NO2)CN1C(=O)[C@@H](NC(=O)OC1CCCC1)C(C)(C)C)C(=O)NS(=O)(=O)C1CC1 [Compound 190] | < 100 nM | 100 to 500 nM
CCC[C@H](NC(=O)[C@@H]1C[C@]2(CC(c3ccc4c(c3)CCC(C)(C)O4)=NO2)CN1C(=O)[C@@H](NC(=O)CC1CCCCC1)C(C)(C)C)C(=O)C(=O)NC1CC1 [Compound 204] | 100 to 500 nM | 100 to 500 nM
CCC[C@H](NC(=O)[C@@H]1C[C@]2(CC(c3cccc(Cl)c3)=NO2)CN1C(=O)[C@@H](NC(=O)CC1CCCCC1)C(C)(C)C)C(=O)C(=O)NCCC(=O)Nc1cc(OC)c2ccccc2c1 [Compound 206] | 100 to 500 nM | 100 to 500 nM
CCC[C@H](NC(=O)[C@@H]1C[C@]2(CC(c3cccc(Cl)c3)=NO2)CN1C(=O)[C@H](Cc1ccc(OC)cc1)NC(=O)CC1CCCCC1)C(=O)C(=O)NC1CC1 [Compound 213] | > 500 nM | > 500 nM
CCC[C@H](NC(=O)[C@@H]1C[C@]2(CC(c3cccc(Cl)c3)=NO2)CN1C(=O)[C@@H](NC(=O)C1CCC(=O)N1)C(C)C)C(=O)C(=O)NC1CC1 (stereo partly shown) [Compound 218] | > 500 nM | > 500 nM
CCC[C@H](NC(=O)[C@@H]1C[C@]2(CC(c3cccc(Cl)c3)=NO2)CN1C(=O)[C@@H](NC(=O)CC1CCCCC1)C(C)(C)C)C(=O)C(=O)NCCc1ccc2c(c1)OCO2 [Compound 221] | 100 to 500 nM | 100 to 500 nM
CCC[C@H](NC(=O)[C@@H]1C[C@]2(CC(c3cccc(Cl)c3)=NO2)CN1C(=O)C1(C(N)=O)CC1)C(=O)C(=O)NC1CC1 [Compound 227] | > 500 nM | > 500 nM
CCC[C@H](NC(=O)[C@@H]1C[C@]2(CC(c3cccc(Cl)c3)=NO2)CN1C(=O)[C@@H](NC(=O)CC1(O)CCCCC1)C(C)(C)C)C(=O)C(=O)NC1CC1 [Compound 233] | < 100 nM | 100 to 500 nM

Reference: patent US7964624B1, “Inhibitors of serine proteases” (priority 2005, dated 2011)
